# Source: PubChem BioAssay (NCI)
#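 Cells were grown in 96-well plates and exposed to each compound for 48 hours at five concentrations; endpoints were interpolated linearly between bracketing concentrations, or set to the highest concentration if not reached. GI50 = concentration required for 50% inhibition of growth. The concentration for full growth arrest is given as TGI.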
# Assays:
# Experiment in all cases: NCI-60 cell line screen, 48 h
# 786-0 renal = system: 786-0 renal
# A498 renal = system: A498 renal
# A549 NSCLC = system: A549 NSCLC
# ACHN renal = system: ACHN renal
# BT-549 breast = system: BT-549 breast
# CAKI-1 renal = system: CAKI-1 renal
# CCRF-CEM leukemia = system: CCRF-CEM leukemia
# COLO 205 colon = system: COLO 205 colon
# DU-145 prostate = system: DU-145 prostate
# EKVX NSCLC = system: EKVX NSCLC
# HCC-2998 colon = system: HCC-2998 colon
# HCT-116 colon = system: HCT-116 colon
# HCT-15 colon = system: HCT-15 colon
# HL-60(TB) leukemia = system: HL-60(TB) leukemia
# HOP-62 NSCLC = system: HOP-62 NSCLC
# HOP-92 NSCLC = system: HOP-92 NSCLC
# HS 578T breast = system: HS 578T breast
# HT29 colon = system: HT29 colon
# IGROV1 ovarian = system: IGROV1 ovarian
# K-562 leukemia = system: K-562 leukemia
# KM12 colon = system: KM12 colon
# LOX IMVI melanoma = system: LOX IMVI melanoma
# M14 melanoma = system: M14 melanoma
# MALME-3M melanoma = system: MALME-3M melanoma
# MCF7 breast = system: MCF7 breast
# MDA-MB-231 breast = system: MDA-MB-231 breast
# MDA-MB-435 = system: MDA-MB-435
# MDA-MB-468 breast = system: MDA-MB-468 breast
# MOLT-4 leukemia = system: MOLT-4 leukemia
# NCI-H226 lung = system: NCI-H226 lung
# NCI-H23 lung = system: NCI-H23 lung
# NCI-H460 lung = system: NCI-H460 lung
# NCI-H522 lung = system: NCI-H522 lung
# NCI/ADR-RES ovarian = system: NCI/ADR-RES ovarian
# OVCAR-3 ovarian = system: OVCAR-3 ovarian
# OVCAR-4 ovarian = system: OVCAR-4 ovarian
# OVCAR-5 ovarian = system: OVCAR-5 ovarian
# OVCAR-8 ovarian = system: OVCAR-8 ovarian
# PC-3 prostate = system: PC-3 prostate
# RPMI-8226 leukemia = system: RPMI-8226 leukemia
# RXF 393 renal = system: RXF 393 renal
# SF-268 CNS = system: SF-268 CNS
# SF-295 CNS = system: SF-295 CNS
# SF-539 CNS = system: SF-539 CNS
# SK-MEL-2 melanoma = system: SK-MEL-2 melanoma
# SK-MEL-28 melanoma = system: SK-MEL-28 melanoma
# SK-MEL-5 melanoma = system: SK-MEL-5 melanoma
# SK-OV-3 ovarian = system: SK-OV-3 ovarian
# SN12C renal = system: SN12C renal
# SNB-19 CNS = system: SNB-19 CNS
# SNB-75 CNS = system: SNB-75 CNS
# SR leukemia = system: SR leukemia
# SW-620 colon = system: SW-620 colon
# T-47D breast = system: T-47D breast
# TK-10 renal = system: TK-10 renal
# U251 CNS = system: U251 CNS
# UACC-257 melanoma = system: UACC-257 melanoma
# UACC-62 melanoma = system: UACC-62 melanoma
# UO-31 renal = system: UO-31 renal
structure (smiles),measurement,setting,value
O=C(c1ccc(Cl)cc1)C1[C@H](c2ccccc2Cl)[C@@H](c2ccccc2)NC12C(=O)Nc1ccc(Cl)cc12 (stereo partly drawn),GI50,786-0 renal,19.1 µM
same,TGI,786-0 renal,39.7 µM
same,GI50,A498 renal,19.9 µM
same,TGI,A498 renal,46.6 µM
same,GI50,A549 NSCLC,18.5 µM
same,TGI,A549 NSCLC,46.1 µM
same,GI50,ACHN renal,25.5 µM
same,TGI,ACHN renal,79.5 µM
same,GI50,BT-549 breast,16.2 µM
same,TGI,BT-549 breast,33.3 µM
same,GI50,CAKI-1 renal,15.2 µM
same,TGI,CAKI-1 renal,43.5 µM
same,GI50,CCRF-CEM leukemia,26.7 µM
same,TGI,CCRF-CEM leukemia,72.9 µM
same,GI50,COLO 205 colon,16.5 µM
same,TGI,COLO 205 colon,30.1 µM
same,GI50,DU-145 prostate,20.1 µM
same,TGI,DU-145 prostate,42.7 µM
same,GI50,EKVX NSCLC,18 µM
same,TGI,EKVX NSCLC,47.6 µM
same,GI50,HCC-2998 colon,16.3 µM
same,TGI,HCC-2998 colon,32.7 µM
same,GI50,HCT-116 colon,14.6 µM
same,TGI,HCT-116 colon,28.2 µM
same,GI50,HCT-15 colon,16.1 µM
same,TGI,HCT-15 colon,31.3 µM
same,GI50,HL-60(TB) leukemia,19.9 µM
same,TGI,HL-60(TB) leukemia,52.5 µM
same,GI50,HOP-62 NSCLC,14.8 µM
same,TGI,HOP-62 NSCLC,29.3 µM
same,GI50,HOP-92 NSCLC,16 µM
same,TGI,HOP-92 NSCLC,33.8 µM
same,GI50,HS 578T breast,16.5 µM
same,TGI,HS 578T breast,40.2 µM
same,GI50,HT29 colon,15.6 µM
same,TGI,HT29 colon,32.5 µM
same,GI50,IGROV1 ovarian,16.7 µM
same,TGI,IGROV1 ovarian,38.5 µM
same,GI50,K-562 leukemia,26.6 µM
same,TGI,K-562 leukemia,> 100 µM
same,GI50,KM12 colon,18.2 µM
same,TGI,KM12 colon,38.1 µM
same,GI50,LOX IMVI melanoma,14.9 µM
same,TGI,LOX IMVI melanoma,28.1 µM
same,GI50,M14 melanoma,15.3 µM
same,TGI,M14 melanoma,28.7 µM
same,GI50,MALME-3M melanoma,15.4 µM
same,TGI,MALME-3M melanoma,29 µM
same,GI50,MCF7 breast,17.6 µM
same,TGI,MCF7 breast,42.6 µM
same,GI50,MDA-MB-231 breast,15.6 µM
same,TGI,MDA-MB-231 breast,29.5 µM
same,GI50,MDA-MB-435,16 µM
same,TGI,MDA-MB-435,30.3 µM
same,GI50,MDA-MB-468 breast,11.8 µM
same,TGI,MDA-MB-468 breast,25.8 µM
same,GI50,MOLT-4 leukemia,23.6 µM
same,TGI,MOLT-4 leukemia,78.7 µM
same,GI50,NCI-H226 lung,14.9 µM
same,TGI,NCI-H226 lung,30.3 µM
same,GI50,NCI-H23 lung,16.2 µM
same,TGI,NCI-H23 lung,33.2 µM
same,GI50,NCI-H460 lung,19 µM
same,TGI,NCI-H460 lung,36.3 µM
same,GI50,NCI-H522 lung,13.7 µM
same,TGI,NCI-H522 lung,30.3 µM
same,GI50,NCI/ADR-RES ovarian,16.3 µM
same,TGI,NCI/ADR-RES ovarian,33.2 µM
same,GI50,OVCAR-3 ovarian,16.8 µM
same,TGI,OVCAR-3 ovarian,35.3 µM
same,GI50,OVCAR-4 ovarian,20.8 µM
same,TGI,OVCAR-4 ovarian,58.4 µM
same,GI50,OVCAR-5 ovarian,15.9 µM
same,TGI,OVCAR-5 ovarian,31.6 µM
same,GI50,OVCAR-8 ovarian,17.9 µM
same,TGI,OVCAR-8 ovarian,39.5 µM
same,GI50,PC-3 prostate,15.1 µM
same,TGI,PC-3 prostate,36.1 µM
same,GI50,RPMI-8226 leukemia,25.6 µM
same,TGI,RPMI-8226 leukemia,79.7 µM
same,GI50,RXF 393 renal,13.9 µM
same,TGI,RXF 393 renal,29.3 µM
same,GI50,SF-268 CNS,19.5 µM
same,TGI,SF-268 CNS,48.2 µM
same,GI50,SF-295 CNS,16.9 µM
same,TGI,SF-295 CNS,34.8 µM
same,GI50,SF-539 CNS,16.9 µM
same,TGI,SF-539 CNS,32.6 µM
same,GI50,SK-MEL-2 melanoma,16.2 µM
same,TGI,SK-MEL-2 melanoma,32.7 µM
same,GI50,SK-MEL-28 melanoma,17.1 µM
same,TGI,SK-MEL-28 melanoma,31.6 µM
same,GI50,SK-MEL-5 melanoma,16.6 µM
same,TGI,SK-MEL-5 melanoma,30.6 µM
same,GI50,SK-OV-3 ovarian,21 µM
same,TGI,SK-OV-3 ovarian,61.2 µM
same,GI50,SN12C renal,15.3 µM
same,TGI,SN12C renal,28.7 µM
same,GI50,SNB-19 CNS,23.1 µM
same,TGI,SNB-19 CNS,78.9 µM
same,GI50,SNB-75 CNS,11.1 µM
same,TGI,SNB-75 CNS,36.9 µM
same,GI50,SR leukemia,18.5 µM
same,TGI,SR leukemia,47.7 µM
same,GI50,SW-620 colon,15.9 µM
same,TGI,SW-620 colon,31.8 µM
same,GI50,T-47D breast,16.1 µM
same,TGI,T-47D breast,39.6 µM
same,GI50,TK-10 renal,19.6 µM
same,TGI,TK-10 renal,53.2 µM
same,GI50,U251 CNS,16.8 µM
same,TGI,U251 CNS,33 µM
same,GI50,UACC-257 melanoma,20.4 µM
same,TGI,UACC-257 melanoma,44.1 µM
same,GI50,UACC-62 melanoma,13.4 µM
same,TGI,UACC-62 melanoma,26.7 µM
same,GI50,UO-31 renal,12.9 µM
same,TGI,UO-31 renal,37.7 µM
